Test results reported in paper PMC7044277 (Nature Communications, 2020).
Values joined by “and” are separate entries in the source; they are usually repeats but may differ in a detail not shown here. Equal values may be shown once.

Experiments:
DRD3 wild-type = DRD3 wild-type (Homo sapiens, UniProt P35462); test: Radioligand competition binding, [3H]-N-methylspiperone
[1] = molecular target: DRD2 (D2 long receptor) wild-type (Homo sapiens, UniProt P14416); test: Radioligand competition binding, [3H]-N-methylspiperone, HEK293T membranes
Chain of DRD2 (D2 long receptor) wild-type (P14416 whole entry): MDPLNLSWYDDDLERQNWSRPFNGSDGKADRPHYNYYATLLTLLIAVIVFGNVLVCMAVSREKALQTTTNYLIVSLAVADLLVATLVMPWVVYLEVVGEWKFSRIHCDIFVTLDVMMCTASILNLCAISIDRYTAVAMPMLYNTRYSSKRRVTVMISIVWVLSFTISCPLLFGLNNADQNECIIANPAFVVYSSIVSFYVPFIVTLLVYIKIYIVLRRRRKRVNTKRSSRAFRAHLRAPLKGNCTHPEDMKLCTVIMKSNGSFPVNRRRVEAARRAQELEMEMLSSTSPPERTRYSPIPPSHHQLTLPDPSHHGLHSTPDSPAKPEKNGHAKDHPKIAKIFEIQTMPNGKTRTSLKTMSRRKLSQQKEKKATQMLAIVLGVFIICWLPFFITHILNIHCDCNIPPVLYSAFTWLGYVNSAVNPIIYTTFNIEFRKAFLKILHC

DRD2 F1103.28A = DRD2 F1103.28A (Homo sapiens, UniProt P14416, F110A); type: binding; parameters: expressed in transfected cells; host or cells: HEK293T (ATCC CRL-11268); conditions: DRD2 F1103.28A
Chain of DRD2 F1103.28A (P14416 whole entry F110A): as the sequence (P14416 whole entry) above, with F110A counted along it

DRD4 (D4.4 variant) [2] = molecular target: T1, DRD4 (D4.4 variant) (Homo sapiens, UniProt P21917); test: β-arrestin2 recruitment (Tango); type: cell-based; conditions: DRD4; Tango; read-out: EC50 ± SEM
T1 sequence (P21917 1-419): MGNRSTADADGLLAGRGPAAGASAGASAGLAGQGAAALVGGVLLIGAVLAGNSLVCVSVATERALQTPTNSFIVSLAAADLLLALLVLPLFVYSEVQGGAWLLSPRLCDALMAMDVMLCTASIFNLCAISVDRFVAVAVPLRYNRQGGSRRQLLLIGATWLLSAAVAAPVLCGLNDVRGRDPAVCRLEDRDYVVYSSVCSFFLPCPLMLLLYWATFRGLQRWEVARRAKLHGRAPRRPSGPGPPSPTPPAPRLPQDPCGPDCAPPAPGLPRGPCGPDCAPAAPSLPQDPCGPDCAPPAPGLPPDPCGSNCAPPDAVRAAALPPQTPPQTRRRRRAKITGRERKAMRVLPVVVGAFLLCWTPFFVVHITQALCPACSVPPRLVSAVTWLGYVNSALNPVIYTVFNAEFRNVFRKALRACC

[3] = molecular target: T2, DRD4 (D4.4 variant) wild-type (Homo sapiens, UniProt P21917); test: Radioligand competition binding, [3H]-N-methylspiperone; conditions: DRD4; [3H]-methylspiperone (0.8-1.0 nM); read-out: Ki
T2 sequence (P21917 1-419): T1 sequence (P21917 1-419)

DRD2 (D2 long receptor) [4] = molecular target: T3, DRD2 (D2 long receptor) (Homo sapiens, UniProt P14416); test: β-arrestin2 recruitment (Tango), HTLA cells; type: cell-based; conditions: for Response, Fig_S11c dose-response: individual replicates
T3 sequence (P14416 whole entry): as the sequence (P14416 whole entry) above

DRD2 (D2 long receptor) [5] = molecular target: T3, DRD2 (D2 long receptor); test: Gαi/o-mediated cAMP inhibition (GloSensor split-luciferase cAMP reporter), HEK293T; type: cell-based; conditions: for Response, Fig_S11b dose-response: individual replicates;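 for all read-outs here: compounds applied 15 min at room temperature, then luciferin plus 400 nM isoproterenol to raise cAMP through endogenous β2-adrenergic receptors, luminescence read 15 min later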
DRD3 = DRD3 (Homo sapiens, UniProt P35462); test: β-arrestin2 recruitment (Tango); type: cell-based; conditions: DRD3, Tango
Chain of DRD3 (P35462 whole entry): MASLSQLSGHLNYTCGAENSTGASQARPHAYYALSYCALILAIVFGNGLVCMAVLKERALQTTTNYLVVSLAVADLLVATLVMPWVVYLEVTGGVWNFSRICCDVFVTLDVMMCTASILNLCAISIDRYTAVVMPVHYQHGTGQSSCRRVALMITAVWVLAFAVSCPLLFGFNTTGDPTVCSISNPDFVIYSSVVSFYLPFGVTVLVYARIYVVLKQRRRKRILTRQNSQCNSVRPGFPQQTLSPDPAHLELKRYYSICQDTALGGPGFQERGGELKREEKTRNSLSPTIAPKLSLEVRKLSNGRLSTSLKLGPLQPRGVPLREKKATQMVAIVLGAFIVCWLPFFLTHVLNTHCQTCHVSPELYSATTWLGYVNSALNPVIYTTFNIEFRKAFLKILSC

DRD4 (D4.4 variant) [6] = molecular target: T1, DRD4 (D4.4 variant); test: Gαi/o-mediated cAMP inhibition (GloSensor); type: cell-based; conditions: DRD4; agonist, cAMP inhibition; read-out: EC50 ± SEM

Chain of DRD3 wild-type (P35462 whole entry): as above

COc1cccc2cc(C(C)NCC3(O)CCCCC3)oc12.Cl (centres unmarked) [O3LE6]
Ki (DRD3 wild-type; DRD3, [3H]-methylspiperone (0.8-1.0 nM), read-out: Ki): 1.07 µM | pKi ± SEM (DRD3 wild-type; DRD3 wild-type): 5.97±0.13 | Ki ([1]; DRD2, [3H]-methylspiperone (0.8-1.0 nM), read-out: Ki): 4.78 µM | pKi ± SEM ([1]; DRD2 wild-type): 5.32±0.22 | pKi ± SEM (DRD2 F1103.28A): 5.49±0.16 | Ki (DRD2 F1103.28A; read-out: Ki): 3.24 µM | EC50 (DRD4 (D4.4 variant) [2]): > 10 µM | Ki [3]: > 10 µM | Emax relative to quinpirole response (DRD2 (D2 long receptor) [4]; DRD2, Tango): 109.80% | EC50 (DRD2 (D2 long receptor) [4]; DRD2, β-arrestin2 recruitment (Tango), read-out: EC50 ± SEM): 0.166 ± 0.0764 µM | response, Fig_S11c dose-response source data (DRD2 (D2 long receptor) [4]; Fig_S11c, Log[Drug] -5, replicate values): 121.198 and 127.001 and 100.932 and 110.321 and 113.709 and 113.34 and 97.1155 | Response, Fig_S11c dose-response (DRD2 (D2 long receptor) [4]; Log[Drug] -6.52): 92.1418 and 88.9307 | Response, Fig_S11c dose-response (DRD2 (D2 long receptor) [4]; Log[Drug] -7): 77.394 and 77.7575 and 68.5542 and 65.6395 and 57.0787 and 60.1228 and 51.2599 and 46.3298 | Response, Fig_S11c dose-response (DRD2 (D2 long receptor) [4]; Log[Drug] -7.52): 38.329 and 41.6231 and 33.61 and 32.4962 and 32.299 and 34.1126 and 16.8232 and 31.0553 and 35.575 | Response, Fig_S11c dose-response (DRD2 (D2 long receptor) [4]; Log[Drug] -8): 11.9901 and 12.2692 and 10.2755 and 10.8849 and 10.4485 and 8.443 and 10.7171 and 9.707 and 5.469 | Response, Fig_S11c dose-response (DRD2 (D2 long receptor) [4]; Log[Drug] -8.52): 3.649 and 3.804 and 4.186 and 3.535 and 4.03 and 2.927 and 1.899 and 5.413 and 2.845 | Response, Fig_S11c dose-response (DRD2 (D2 long receptor) [4]; Log[Drug] -9): 2.6531 and 2.675 and 3.049 and 2.914 and 2.704 and 2.807 and 3.034 (2×) and 2.494 | Response, Fig_S11c dose-response (DRD2 (D2 long receptor) [4]; Log[Drug] -9.52): 2.467 and 2.869 and 2.678 and 2.37 and 2.33 and 2.2184 and 1.931 and 2.13 and 2.319 | Response, Fig_S11c dose-response (DRD2 (D2 long receptor) [4]; Log[Drug] -10): 2.843 and 2.654 and 2.976 and 2.168 and 2.347 and 2.222 and 3.804 and 1.194 and 2.499 | Response, Fig_S11c dose-response (DRD2 (D2 long receptor) [4]; Log[Drug] -10.52): 2.259 and 2.282 and 2.549 and 2.128 and 2.141 (2×) and 0.6309 and 3.246 and 2.4849 | Response, Fig_S11c dose-response (DRD2 (D2 long receptor) [4]; Log[Drug] -11): 2.232 and 3.428 and 2.336 and 2.237 and 2.197 and 2.087 and 5.0906 and 1.927 and 3.601 | Response, Fig_S11c dose-response (DRD2 (D2 long receptor) [4]; Log[Drug] -11.52): 2.2032 and 3.321 and 2.444 and 2.452 and 2.181 and 2.306 and 0.82 and 1.028 and 2.688 | Response, Fig_S11c dose-response (DRD2 (D2 long receptor) [4]; Log[Drug] -12): 2.5295 and 2.339 and 2.21 and 2.47 and 2.197 and 2.157 and 4.362 and 2.319 and 1.955 | EC50 (DRD2 (D2 long receptor) [5]; DRD2, agonist, Gαi/o-mediated cAMP inhibition, read-out: EC50 ± SEM): 0.00538 ± 0.00115 µM | Emax relative to quinpirole response (DRD2 (D2 long receptor) [5]; DRD2, cAMP inhibition): 91.62% | Response, Fig_S11b dose-response (DRD2 (D2 long receptor) [5]; Log[Drug] -5): 91.2746 and 93.268 and 92.0221 and 94.9982 and 95.9757 and 91.0458 and 94.8288 and 96.7238 and 94.4943 | Response, Fig_S11b dose-response (DRD2 (D2 long receptor) [5]; Log[Drug] -5.52): 84.7131 and 82.1661 and 88.7829 and 90.1533 and 94.7432 and 84.076 and 96.9467 and 103.412 and 92.2649 | Response, Fig_S11b dose-response (DRD2 (D2 long receptor) [5]; Log[Drug] -6): 91.1916 and 89.8903 and 94.4031 and 97.8031 and 85.4785 and 88.6659 and 101.461 and 101.183 and 85.6322 | Response, Fig_S11b dose-response (DRD2 (D2 long receptor) [5]; Log[Drug] -6.52): 79.2314 and 90.7486 and 80.9756 and 96.6556 and 102.308 and 66.8216 and 90.3141 and 94.5501 and 81.1733 | Response, Fig_S11b dose-response (DRD2 (D2 long receptor) [5]; Log[Drug] -7): 93.1296 and 79.0099 and 76.7951 and 89.8559 and 81.4411 and 87.5184 and 97.0582 and 96.7796 and 87.8617 | Response, Fig_S11b dose-response (DRD2 (D2 long receptor) [5]; Log[Drug] -7.52): 73.6389 and 59.4361 and 66.496 and 84.9685 and 73.1539 and 73.1114 and 79.2783 and 81.1733 and 101.35 | Response, Fig_S11b dose-response (DRD2 (D2 long receptor) [5]; Log[Drug] -8): 62.703 and 59.1593 and 45.4826 and 64.1867 and 54.9645 and 52.4996 and 72.7571 and 85.8552 and 67.9638 | Response, Fig_S11b dose-response (DRD2 (D2 long receptor) [5]; Log[Drug] -8.52): 23.5556 and 18.5998 and 3.594 and 27.9779 and 38.8575 and 46.6347 and 39.4267 and 57.0952 and 34.8006 | Response, Fig_S11b dose-response (DRD2 (D2 long receptor) [5]; Log[Drug] -9): 24.2477 and 23.1957 and 12.4536 and 22.6655 and 22.9205 and 23.0055 and 26.2172 and 30.5646 and 12.7847 | Response, Fig_S11b dose-response (DRD2 (D2 long receptor) [5]; Log[Drug] -10.52): -0.1987 and -7.8123 | Response, Fig_S11b dose-response (DRD2 (D2 long receptor) [5]; Log[Drug] -11): 6.197 and 12.6784 and -7.6785 and 0.5663 | Response, Fig_S11b dose-response (DRD2 (D2 long receptor) [5]; Log[Drug] -11.52): -9.1412 and 3.4 and -7.0575 and 6.319 | Response, Fig_S11b dose-response (DRD2 (D2 long receptor) [5]; Log[Drug] -12): -5.1267 and 0.6872 and -14.1523 and 6.559 and 2.691 and 2.479 and -11.9066 and 21.591 and -2.8216 | Emax relative to quinpirole response (DRD3): 80.01% | EC50 (DRD3; read-out: EC50 ± SEM): 5.48 ± 3.94 µM | EC50 (DRD4 (D4.4 variant) [6]): > 10 µM
